Test results published in patent US11873290B2, “Pyridazinone compounds and uses thereof” (Edgewise Therapeutics, Inc., priority 2018, dated 2024).

The compounds below were run against skeletal myofibrils (myosin ATPase activity) (assay: Skeletal Myofibril ATPase Assay). Settings: PK-LDH coupled, absorbance at 340 nm.
Type: biochemical
In short: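 Skeletal myofibril ATPase measured by PK-LDH-coupled NADH depletion at 340 nm, read every 1.5–2 min for 1 h; pCa buffer with PIPES/CaCl2/EGTA, pH 7.0. Rate taken as max–min absorbance, normalised to 1% DMSO vehicle (100%) and no change (0%); IC50 from four-parameter fit, bottom ≥0.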

Structure (SMILES) | IC50
Cc1ncc(Cn2nc(-c3cnc(OCC(C)C)nc3)ccc2=O)s1 [Compound 130, 6-(2-isobutoxypyrimidin-5-yl)-2-((2-methylthiazol-5-yl)methyl)pyridazine-3(2H)-one] | < 10 µM
[2H]C(C)(C)COc1ncc(-c2ccc(=O)n(Cc3cncc(F)c3)n2)cn1 [Compound 131, 2-((5-fluoropyridin-3-yl)methyl)-6-(2-(2-methylpropoxy-2-d)pyrimidin-5-yl)pyridazin-3(2H)-one] | < 10 µM
CCc1cncc(Cn2nc(-c3cnc(OCC(F)(F)F)nc3)ccc2=O)c1 [Compound 137, 2-((5-ethylpyridin-3-yl)methyl)-6-(2-(2,2,2-trifluoroethoxy)pyrimidin-5-yl)pyridazine-3(2H)-one] | < 10 µM
Cc1cc(Cn2nc(-c3ccc(OC(F)F)cc3)ccc2=O)on1 [Compound 204, 6-(4-(difluoromethoxy)phenyl)-2-((3-methylisoxazol-5-yl)methyl)pyridazine-3(2H)-one] | < 10 µM
Cc1csc(Cn2nc(-c3ccc(OC(F)F)cc3)ccc2=O)n1 [Compound 205, 6-(4-(difluoromethoxy)phenyl)-2-((4-methylthiazol-2-yl)methyl) pyridazine-3(2H)-one] | < 10 µM
O=c1ccc(-c2ccc(OC(F)F)cc2)nn1Cc1cc(C2CC2)no1 [Compound 206, 2-((3-cyclopropylisoxazol-5-yl)methyl)-6-(4-(difluoromethoxy)phenyl) pyridazine-3(2H)-one] | < 10 µM
O=c1ccc(-c2ccc(OC(F)F)cc2)nn1Cc1nc(C2CC2)no1 [Compound 208, 2((3-cyclopropyl-1,2,4-oxadiazol-5-yl)methyl)-6-(4-(difluoromethoxy)phenyl) pyridazine-3(2H)-one] | < 10 µM
CCc1cc(Cn2nc(-c3ccc(OC(F)F)cc3)ccc2=O)on1 [Compound 209, 6-(4-(difluoromethoxy)phenyl)-2-((3-ethylisoxazol-5 - yl)methyl)pyridazin-3(2H)-one] | < 10 µM

Further lines, results first:

IC50 | Structure (SMILES)
< 10 µM | COc1cncc(Cn2nc(-c3cnc(OCC(F)(F)F)nc3)ccc2=O)c1 [Compound 128, 2-((5-methoxypyridin-3-yl)methyl)-6-(2-(2,2,2-trifluoroethoxy)pyrimidin-5-yl)pyridazine-3(2H)-one]
< 10 µM | CCc1ncc(Cn2nc(-c3cnc(OCC(C)(F)F)nc3)ccc2=O)s1 [Compound 129, 6-(2-(2,2-difluoropropoxy)pyrimidin-5-yl)-2((2-ethylthiazol-5-yl)methyl)pyridazine-3(2H)-one]
< 10 µM | COc1ccc(Cn2nc(-c3cnc(OCC(F)(F)F)nc3)ccc2=O)cn1 [Compound 132, 2-((6-methoxypyridin-3-yl)methyl)-6-(2-(2,2,2-trifluoroethoxy)pyrimidin-5-yl)pyridazine-3(2H)-one]
< 10 µM | O=c1ccc(-c2cnc(OCc3ccccc3)nc2)nn1Cc1cncc(F)c1 [Compound 138]
< 10 µM | O=c1ccc(-c2ccc(OC(F)F)cc2)nn1Cc1nnc(-c2ccccc2)s1 [Compound 201, 6-(4-(difluoromethoxy)phenyl)-2-((5-phenyl-1,3,4-thiadiazol-2-yl)methyl)pyridazin-3(2H)-one]
< 10 µM | O=c1ccc(-c2ccc(OC(F)F)cc2)nn1Cc1nc(-c2ccccc2)no1 [Compound 202, 6-(4-(difluoromethoxy)phenyl)-2-((3-phenyl-1,2,4-oxadiazol-5-yl)methyl)pyridazine-3(2H)-one]
< 10 µM | O=c1ccc(-c2ccc(OC(F)F)cc2)nn1Cc1nc2ccccc2o1 [Compound 203, 2-(benzo[d]oxazol-2-ylmethyl)-6-(4-(difluoromethoxy)phenyl) pyridazine-3(2H)-one]
< 10 µM | O=c1ccc(-c2ccc(OC(F)F)cc2)nn1Cc1nc(C2CC2)cs1 [Compound 210, 2-((4-cyclopropylthiazol-2-yl)methyl)-6-(4-(difluoromethoxy)phenyl) pyridazine-3(2H)-one]
10 to 100 µM | O=c1ccc(-c2ccc(OC(F)F)cc2)nn1Cc1ccc(Cl)cn1 [Compound 211, 2-((5-chloropyridin-2-yl)methyl)-6-(4-(difluoromethoxy)phenyl)-pyridazin-3(2H)-one]
